Data as given in patent US11046657B2, “Pyrimidinone derivatives and uses thereof to neutralize the biological activity of chemokines” (Centre National de la Recherche Scientifique (CNRS), priority 2016, dated 2021).
Entries after “also recorded” stand apart in the source; their conditions may differ.

Experiments:
[1] = test system: Balb/c mice sensitized to ovalbumin; assay: 8-day murine model of allergic eosinophilic airway inflammation; assay type: in vivo, mouse; settings: for IC50 on eosinophil recruitment: intranasal, 2 h before each challenge, in PBS/Cdx, bronchoalveolar lavage 24 h after last challenge
Procedure: In vivo dose-response effect of a topical treatment with chalcone-4 and compound (1) of formula (I) in an 8-day mouse model of allergic eosinophilic airway inflammation. Balb/c mice were sensitized to ovalbumin (OVA, 50 μg) in the presence of 2 mg alum (IP. injection on days 0, 1 and 2) and challenged with OVA (10 μg) or saline (IN.) on days 6, 7 and 8. Increasing doses of chalcone-4 (gray line) or compound (1) (black line) solubilized in 10% hydroxypropyl-B-cyclodextrine (Cdx) were administered by the intranasal route 2 h before each challenge. Bronchoalveolar lavage was performed 24 h after the last challenge, and inflammatory cells including eosinophils counted. The percentage of inhibition of eosinophil recruitment is shown. Data points are means and bars are S.E.M. values of n=6 determinations.
The in vivo activity of compound (1) was tested in the 8-day murine model of allergic eosinophilic airway inflammation previously described^13.
Briefly, Balb/c mice were sensitized to ovalbumin (OVA) and challenged 3 times with OVA or saline at 24 h interval. Treatments with each compound (300 nmol/kg in 10% PBS/Cdx) were administered by the intranasal route 2 h before each challenge. Bronchoalveolar lavage was performed 24 h after the last challenge, and eosinophil, macrophage, neutrophil and lymphocyte numbers quantified.
Using the same protocol, the dose-response of compound (1) and chalcone-4 was evaluated on eosinophil recruitment after intranasal administration (FIG. 1).

[2] = test system: Balb/c mice administered LPS; assay: LPS-induced mouse model of neutrophilic airway inflammation (COPD); assay type: in vivo; settings: 350 μmol/kg i.p. in 1% CMC, 2 h before LPS; lavage 24 h after LPS
Procedure: In vivo effect of a systemic treatment with chalcone-4 or compound (1) in a LPS-induced mouse model of neutrophilic airway inflammation. Balb/c mice were administered intranasally with LPS (1 μg, white block) or saline (control). Chalcone-4 (gray block) or compound (1) (black block) (350 μmol/kg each) suspended in 1% CMC or solvent (CMC alone) were administered intraperitoneally 2 h before LPS. Neutrophil recruitment is shown, inhibited by chalcone 4 and compound (1). Data points are means and bars are S.E.M. values of n=6 determinations.
The in vivo activity of compound (1) was tested in the murine model of neutrophilic airway inflammation induced by lipopolysaccharide (LPS) as previously described (Flacher et al, ACS Chem Biol. 2015, 10:2697-705)^14.
Briefly, Balb/c mice were administered intranasally with LPS (lipopolysaccharide from E. coli, O55B5, 1 μg, Sigma Aldrich) or saline. Treatments with (1) or Chalcone-4 (350 μmol/kg) in 1% CMC (carboxymethylcellulose) were administered by the intraperitoneal route 2 h before LPS instillation. Bronchoalveolar lavage was performed 24 h after LPS, and neutrophil, lymphocyte, eosinophil and macrophage numbers quantified.

[3] = test system: Balb/c mice topically administered MC903; assay: Murine model of atopic dermatitis induced by MC903; assay type: in vivo, mouse; settings: 350 μmol/kg topical in acetone/olive oil, 2 h before each MC903 application, D1-D13
Procedure: FIG. 2A. In vivo effect of a topical treatment with chalcone 4 and compound (1). Mouse ears were treated with MC903 (calcipotriol, 2 nmol/ear or 4 nmol/ear) or its solvent (ethanol EtOH) together with 350 μmol/kg chalcone 4 (upper row of images) or compound (1) (lower row of images) or solvent (acetone/olive oil 50/50, AOO). Chalcone 4 and compound (1) were dissolved in AOO and administered topically 2 h before each MC903 application. MC903 was dissolved in EtOH and topically applied.
FIG. 2B. Increase in ear thickness over time (D1-D13) was determined with a caliper on animals treated with MC903 or solvent (EtOH), and compound (1) or solvent (AOO) as described for FIG. 2A. Data points are means and bars are S.E.M. values of n=6 determinations.
FIG. 2C. Increase in ear thickness over time (D1-D13) was determined with a caliper on animals treated with MC903 or solvent (EtOH) and […] or solvent (AOO). Data points are means and bars are S.E.M. values of n=6 determinations.
The in vivo activity of compound (1) was tested in a murine model of atopic dermatitis as previously described (Zhang et al, Proc Nat Acad Si USA 2009, 106, 1536-41). Briefly, Balb/c mice were topically administered with a vitamin D analogue, MC903 (2 or 4 nmol/ear) every other day for 13 days. […]

[4] = target: T1, CXCR4-CXCL12 binding (Homo sapiens, UniProt P48061); assay: Inhibition of CXCL12-TR binding to CXCR4-GFP (FRET); settings: 10 μM
T1 construct: expressed in transfected cells
Procedure: Study of the changes of CXCR4-CXCL12 binding was achieved by the energy transfer technique^10,11.
Binding of Texas red-labelled CXCL12 with CXCR4-GFP fused receptor^11 induces fluorescence resonance energy transfer (FRET), which can be monitored by the reduction of GFP fluorescence emission. The characterization of CXCL12 neutraligands was evaluated in two conditions, differing by the sequence of addition of molecules. Reduction of GFP fluorescence emission was more important when neutraligands were preincubated (30 min) […] prior to the addition to cells.
The CXCR4 antagonist, T134 (20 μM) was used as a control in both incubation protocols. Data obtained were consistent with a binding to the chemokine and not to its receptor. Consequently, all selected compounds are indeed CXCL12 chemokine neutraligands and behave as chalcone-4. The neutralizing properties of the compounds are thus confirmed.

T1 sequence (P48061 22-89 limits assumed): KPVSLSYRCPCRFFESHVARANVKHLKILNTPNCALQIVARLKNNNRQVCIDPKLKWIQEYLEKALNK

Structure (SMILES) | IC50 on eosinophil recruitment [1] | Inhibition of neutrophil recruitment [2] [%] | Atopic response to MC903 (ear thickness) [3] | inhibition at 10 µM ([4]; Table 3) [%] | Recruitment of eosinophils ([1]; 300 nmol/kg, intranasal route, n=6) | inhibition at 10 µM ([4]; Table 2) [%] | inhibition at 10 µM ([4]; Table 4) [%]
COc1cc(/C=C/C(=O)c2ccc(Cl)cc2)ccc1O [Chalcone-4, (E)-1-(4-Chlorophenyl)-3-(4-hydroxy-3-methoxyphenyl)prop-2-en-1-one, reference compound] | higher than 500 nmol/kg | 30 | totally abolished the atopic response to MC903 | 96 ± 2 |  |  | 
COc1cc(-c2cc(-c3ccc(Cl)cc3)nc(=O)[nH]2)ccc1O [compound (1), 4-(4-Chlorophenyl)-6-(4-hydroxy-3-methoxyphenyl)pyrimidin-2(1H)-one] | 300 nmol/kg | 43 | inhibits atopic dermatitis induced by MC903; also recorded: totally abolished the atopic response to MC903 | 76 ± 5 | inhibits the recruitment of eosinophils | 92 ± 5 | 76 ± 5
